Results reported in patent publication US20260076902A1, “LIQUID, STORAGE STABLE, DIRECTLY INJECTABLE, PANTOPRAZOLE FORMULATIONS, THEIR USES AND MANUFACTURING” (Etico Lifesciences Private Limited, priority 2024, published 2026).

Assay: Dilution with 0.9% sodium chloride solution, precipitation
Format: physicochemical
Details: alpha tocopherol tested as stabilizer

behaviour upon dilution with 0.9% sodium chloride solution: precipitation was formed
SMILES: Cc1c(C)c2c(c(C)c1O)CC[C@@](C)(CCC[C@H](C)CCC[C@H](C)CCCC(C)C)O2 [Alpha tocopherol]
